Measured values from PMC6149824, “Design and Synthesis of New Benzothiazole Compounds as Selective hMAO-B Inhibitors” (Molecules : A Journal of Synthetic Chemistry and Natural …, 2017).
Entries after “also recorded” stand apart in the source; their conditions may differ.

Columns and labels:
hMAO-B [1] = target: T1, hMAO-B (Homo sapiens, UniProt P27338); assay: in vitro fluorometric hMAO-B inhibition assay (Amplex Red); type: biochemical
T1 sequence (P27338 1-520): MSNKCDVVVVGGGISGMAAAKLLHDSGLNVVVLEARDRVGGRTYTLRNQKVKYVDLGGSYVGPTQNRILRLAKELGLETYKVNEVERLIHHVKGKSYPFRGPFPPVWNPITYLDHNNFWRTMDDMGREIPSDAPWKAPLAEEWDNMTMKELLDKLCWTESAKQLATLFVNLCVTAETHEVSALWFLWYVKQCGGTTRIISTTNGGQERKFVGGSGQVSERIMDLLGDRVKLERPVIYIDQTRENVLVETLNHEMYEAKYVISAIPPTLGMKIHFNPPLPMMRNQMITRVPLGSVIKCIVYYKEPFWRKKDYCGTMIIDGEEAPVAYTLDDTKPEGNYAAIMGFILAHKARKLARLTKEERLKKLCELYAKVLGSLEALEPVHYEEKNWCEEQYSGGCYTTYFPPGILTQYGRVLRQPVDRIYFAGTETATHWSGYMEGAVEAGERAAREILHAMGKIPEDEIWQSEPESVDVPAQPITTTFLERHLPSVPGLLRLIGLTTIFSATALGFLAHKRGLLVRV
Protocol: The method was performed in two steps, as previously described.
An enzyme inhibition assay was performed according to our recent study. […] After the incubation period, the reaction was started by adding a working solution (100 μL/well) ([…] Amplex Red reagent, 1 U/mL horseradish peroxidase and 1 mM p-tyramine) and all pipetting processes were performed using a Biotek Precision XS robotic system (BioTek Instruments, Winooski, VT, USA).
Control experiments were carried out simultaneously by replacing the inhibitor solution with 2% DMSO (20 μL). In order to check the probable inhibitory effect of inhibitors on horseradish peroxidase, a parallel reading was achieved by replacing enzyme solutions with 3% H2O2 solution (20 mM 100 μL/well). In addition, the probable capacity of the inhibitors to modify the fluorescence generated in the reaction mixture due to non-enzymatic inhibition was determined by mixing inhibitor and working solutions.
The specific fluorescence emission (used to obtain the final results) was calculated after subtraction of the background activity, which was determined from vials containing all components except the hMAO isoforms, which were replaced by phosphate buffer (100 μL/well). Blank, control and all concentrations of inhibitors were analyzed in quadruplicate and inhibition percent was calculated by using following equation: % Inhibition=(FCt2−FCt1)−(FIt2−FIt1)/FCt2−FCt1×100 where FCt2 is the fluorescence of a control well measured at t2 time; FCt1 is the fluorescence of a control well measured at t1 time; FIt2 is the fluorescence of an inhibitor well measured at t2 time; and FIt1 is the fluorescence of an inhibitor well measured at t1 time.
The IC50 values were calculated from a dose-response curve obtained by plotting the percentage inhibition versus the log concentration with the use of GraphPad PRISM software (version 5.0, GraphPad Software Inc., La Jolla, CA, USA).

hMAO-B [2] = target: T1, hMAO-B; assay: enzyme kinetic studies (Lineweaver-Burk) of hMAO-B inhibition; type: biochemical
Protocol: The mechanism of hMAO-B inhibition was investigated by enzyme kinetic studies. Lineweaver-Burk graphs were used to estimate the type of inhibition. […] The velocity measurements were performed by using different substrate concentrations (20 µM–0.625 µM). The Ki (intercept on the x-axis) value of compound 3e was determined from the secondary plot of the 1/V versus varying concentrations.
The Lineweaver-Burk graphics present the inhibition type as a mixed-type, competitive, uncompetitive, or non-competitive. In the mix-typed inhibition, the control and inhibitor lines cross neither x- nor y-axis at the same point. […] There is no crosses between the lines in uncompetitive-type inhibition. […] Thus, it can be declared that the mechanism of hMAO-B inhibition of 3e is non-competitive, clarifying that the inhibitor can bind to either free enzyme or enzyme–substrate complex.
The same materials were used in the MAO inhibition assay. […] The solutions of inhibitor (20 μL/well) and enzyme added to the fine black-bottom 96-well microtiter plate and then the mixture was incubated at 37 °C for 30 min. After incubation period, the working solution, including various concentrations (20, 10, 5, 2.5, 1.25, and 0.625 μM) of tyramine (100 μL/well), was added. The increase of the fluorescence (Ex/Em = 535/587 nm) was recorded for 30 min. A parallel experiment was performed without using an inhibitor. All processes were assayed in quadruplicate. Lineweaver-Burk plots were obtained by using Microsoft Office Excel 2013 to analyze the inhibition type. The slopes of the Lineweaver-Burk plots were replotted versus the inhibitor concentration, and the Ki values were determined from the x-axis intercept as −Ki.

[3] = cytotoxicity test (MTT) on NIH/3T3 cells; type: cell-based, mouse; details: mouse, NIH/3T3 mouse embryonic fibroblast cells (ATCC CRL-1658); MTT assay, 1000 µM to 0.316 µM; read-out: IC50 (cytotoxic activity against NIH/3T3 cell line)
Protocol: (§1) The healthy NIH/3T3 mouse embryonic fibroblast cell line (ATCC CRL1658), proposed by ISO (10993-5, 2009) for preliminary cytotoxicity screening of drug candidates, was used to evaluate the cytotoxicity of compound 3e. The IC50 value of the compound 3e is represented in Table 3.
(§2) NIH/3T3 mouse embryonic fibroblast cell line (ATCC® CRL-1658™, London, UK) was used in the cytotoxicity test and, initially, NIH/3T3 cells were incubated in Dulbecco’s Modified Eagle’s Medium (DMEM). NIH/3T3 cells were added to 96-well culture plates (10,000 cells/well). Synthesized compounds and reference agents were added to the 96-well culture plates at various concentrations ranging from 1000 µM to 0.316 µM. MTT assay was performed as previously described. Dose-response curves were plotted against compound concentrations applied to determine IC50 values.

[4] = tested on: NIH/3T3 mouse embryonic fibroblast cell line; assay: cytotoxicity test (MTT) on NIH/3T3 cells; type: cell-based
Protocol: as §1, §2

Compound: COc1ccc2sc(SCC(=O)NN=Cc3ccc([N+](=O)[O-])s3)nc2c1 [Compound 3e, 2-((5-Methoxybenzothiazol-2-yl)thio)-N′-((5-nitrothiophen-2-yl)methylene)acetohydrazide]
- inhibition at 1000 µM (hMAO-B [1]; 10^−3 M, read-out: MAO B Inhibition %): 87.3%
- inhibition against hMAO-B (first screening step) (hMAO-B [1]; 10^−3 and 10^−4 M): more than 50%
- inhibition at 100 µM (hMAO-B [1]; 10^−4 M, read-out: MAO B Inhibition %): 83.5%
- IC50 (hMAO-B [1]; concentrations of 10^−5–10^−9 M, mean ± SD, read-out: MAO B IC50): 60 ± 2 nM
- mechanism (type) of hMAO-B inhibition (hMAO-B [2]; Lineweaver-Burk plots): non-competitive
- Vmax (hMAO-B [2]; inhibitor concentration 2 × IC50): 158.730 nmol/min/mg protein
- Vmax (hMAO-B [2]; inhibitor concentration IC50): 212.766 nmol/min/mg protein
- Vmax (hMAO-B [2]; inhibitor concentration IC50/2): 263.158 nmol/min/mg protein
- Ki (hMAO-B [2]; secondary plot, x-axis intercept, substrate tyramine, read-out: Ki (steady-state inhibition constant) for the inhibition of hMAO-B): 61 nM
- IC50 [3]: 19000 ± 1030 nM
- fold IC50 against NIH/3T3 higher than IC50 against hMAO-B ([4]; IC50 NIH/3T3 vs IC50 hMAO-B): ca. 300 fold
- cytotoxicity (in words) ([4]; NIH/3T3, at its effective concentration): not cytotoxic; also recorded: non-cytotoxic
- melting point: 177.2 to 178.6 °C
